ChEMBL document CHEMBL1133303, “Molecular topology: a useful tool for the search of new antibacterials” (2000)
≈ marks a conversion by molar mass, not a printed value.

Tests used:
Assay type in all cases: functional
Escherichia coli = test: Minimum inhibitory concentration against Escherichia coli (CECT405)
Proteus mirabilis = test: Minimum inhibitory concentration against Proteus mirabilis (CECT170)
Pseudomonas aeruginosa = test: Minimum inhibitory concentration against Pseudomonas aeruginosa (CECT108)
Staphylococcus aureus = test: Minimum Inhibitory concentration against Staphylococcus aureus (CECT240)

Compound	MIC90 (Escherichia coli) [µg/mL]	MIC90 (Proteus mirabilis) [µg/mL]	MIC90 (Pseudomonas aeruginosa) [µg/mL]	MIC90 (Staphylococcus aureus) [µg/mL]
O=c1c(O)c(-c2ccc(O)cc2O)oc2cc(O)cc(O)c12 [MORIN]	1380 (≈ 4570 µM)	120 (≈ 397 µM)	120 (≈ 397 µM)	120 (≈ 397 µM)
CC(=O)Nc1cc(C)cc(/N=N/c2cc([N+](=O)[O-])cc([N+](=O)[O-])c2O)c1O	130 (≈ 346 µM)	130 (≈ 346 µM)	130 (≈ 346 µM)	130 (≈ 346 µM)
COc1ccc([C@@H]2CC(=O)c3c(O)cc(O[C@@H]4O[C@H](CO)[C@@H](O)[C@H](O)[C@H]4O[C@@H]4O[C@@H](C)[C@H](O)[C@@H](O)[C@H]4O)cc3O2)cc1O [NEOHESPERIDIN]	300 (≈ 491 µM)	300 (≈ 491 µM)	300 (≈ 491 µM)	300 (≈ 491 µM)
O=C(O)c1cccnc1Nc1cccc(C(F)(F)F)c1 [NIFLUMIC ACID]	1800 (≈ 6380 µM)	1800 (≈ 6380 µM)	–	160 (≈ 567 µM)
COc1cc2ccc(=O)oc2c(O[C@@H]2O[C@H](CO)[C@@H](O)[C@H](O)[C@H]2O)c1O [FRAXINE]	1450 (≈ 3920 µM)	1450 (≈ 3920 µM)	1450 (≈ 3920 µM)	1450 (≈ 3920 µM)

Stronger by MIC90 (Staphylococcus aureus), values ahead:

MIC90 (Escherichia coli) [µg/mL]	MIC90 (Proteus mirabilis) [µg/mL]	MIC90 (Pseudomonas aeruginosa) [µg/mL]	MIC90 (Staphylococcus aureus) [µg/mL]	Compound
–	–	25 (≈ 40.9 µM)	8 (≈ 13.1 µM)	COc1ccc([C@@H]2CC(=O)c3c(O)cc(O[C@@H]4O[C@H](CO[C@@H]5O[C@@H](C)[C@H](O)[C@@H](O)[C@H]5O)[C@@H](O)[C@H](O)[C@H]4O)cc3O2)cc1O [HESPERIDIN]
10 (≈ 30.9 µM)	100 (≈ 309 µM)	100 (≈ 309 µM)	100 (≈ 309 µM)	O=C(N[C@H](CO)[C@H](O)c1ccc([N+](=O)[O-])cc1)C(Cl)Cl [CHLORAMPHENICOL]
–	700	200	80	SILYMARIN
